One molecule from patent US12336986B2, “Treatment and prevention of ocular neurodegenerative disorder” (The Jackson Laboratory, priority 2015, dated 2025) can be followed below.

The structures appear in SMILES notation. Entries after “also recorded” stand apart in the source; their conditions may differ.

The assay has as its system dendritic mitochondria of D2 RGCs. As to the kind of experiment: Electron microscopy of RGC dendritic mitochondria (cristae). The format is in vivo, mouse. Particulars: D2 mice, NAM 550 mg/kg/day. As to the method: Mice were euthanized, eyes enucleated, and then fixed ON in Smith-Ruda (0.8% PFA and 1.2% gluteraldehyde in 0.1 M phosphate buffer). The cornea and lens were dissected off and the remaining posterior eye-cup (containing the retina and ONH) were post-fixed in 2% aqueous osmium tetroxide and dehydrated in ethyl alcohol. Samples were then infiltrated and flat-mounted in Embed 812/Araldite resin (Electron Microscopy Sciences) to allow en face sections. Blocks were polymerized at 60° C. for 48 hrs and 90 nm microtome sections were cut (Leica UC6, Leica) onto 300 mesh copper grids. Grids were stained with 1% aqueous uranyl acetate/Reynold's lead citrate and were viewed on a JEOL JEM 1230 TEM. Images were collected on an AMT 2K camera.

As for `NC(=O)c1cccnc1` [NAM, nicotinamide], the “mitochondrial dysfunction / abnormal cristae in dendritic mitochondria (EM)” value is “sufficient to inhibit the formation of dysfunctional mitochondria; also recorded: prevents early mitochondrial dysfunction”.
